Data from patent publication US9409923B2, “Drug-fluorophore complex for specific detection of tumor cells” (KOREA INSTITUTE OF SCIENCE AND TECHNOLOGY, priority 2013, dated 2016).

Columns and labels:
[1] = tested on: HCT-116 cells (colorectal cancer cells) including luciferase; test: Ex vivo imaging on liver sections excised from mice; format: in vivo; settings: FIGS. 3a-3d
Method: (§1) Mice were anesthetized with intraperitoneal injection of ketamine and xylazine, and their abdomens were cut open. HCT-116 cells (colorectal cancer cells) including luciferase were added at a concentration of 1×10^6 cells to 20 μl saline solution and injected into the left lobe of the liver to induce tumors in the mice. Four weeks after cell injection, the tumors were imaged as follows:
(§2) The compounds of Synthesis Examples 1-5 were dissolved in PBS (pH 7.4) to prepare 25 μM solutions. Mice were anesthetized intraperitoneally and their abdomens were open. 50 μl of each of the compounds was dropped using a 100 μl pipette. After 3 min, fluorescence and luminescence were observed using an imaging system (IVIS®).
Similarly to the procedure described above, ex vivo imaging was performed on liver sections excised from mice. The results are shown in FIGS. 3a to 3d (3a and 3b: fluorescence and luminescence images of the fluorophore, respectively; 3c and 3d: fluorescence and luminescence images of the drug-fluorophore complex, respectively).

[2] = tested on: HCT-116 cells (colorectal cancer cells) including luciferase; test: Specific in vivo imaging of tumor cells (fluorescence vs luminescence, IVIS) in mouse liver tumors; set-up: species or system Mice; settings: 25 μM in PBS (pH 7.4), 50 μl dropped on open abdomen, observed after 3 min; FIGS. 2a-2d
Method: as §1, §2
FIGS. 2a to 2d are images showing fluorescence (2a) and luminescence (2b) from the fluorophore to which toremifene was not bonded, and images showing fluorescence (2c) and luminescence (2d) from the complex of the present invention in which the fluorophore was bonded to toremifene.

[3] = in vivo; cited from earlier work

| SMILES | fluorescence and luminescence in excised liver sections (ex vivo imaging) [1] | fluorescence in tumor-bearing liver compared with luminescence position [2] | Volume of distribution [3] [L/kg] |
| --- | --- | --- | --- |
| CC[N+]1=C(/C=C/C=C/C=C2/N(CCCCCC(=O)N(C)CCOc3ccc(/C(=C(/CCCl)c4ccccc4)c4ccccc4)cc3)c3ccc4c(S(=O)(=O)O)cc(S(=O)(=O)O)cc4c3C2(C)C)C(C)(C)c2c1ccc1c(S(=O)(=O)O)cc(S(=O)(=O)[O-])cc21 [Synthesis Example 3, N-desmethyl toremifene-FCR675 Carboxylic Acid Complex] | the same results of the in vivo imaging were observed in the ex vivo imaging | fluorescence was observed in the section of the liver, which was the same as the position confirmed by luminescence |  |
| CNCCOc1ccc(/C(=C(/CCCl)c2ccccc2)c2ccccc2)cc1 [N-desmethyltoremifene] |  |  | 8.3 |
| CC1(C)S[C@@H]2[C@H](NC(=O)[C@H](N)c3ccccc3)C(=O)N2[C@H]1C(=O)O [Ampicillin] |  |  | 0.38 |
